Laboratory results reported in patent US9131688B2, “Strigolactam derivatives as plant growth regulating compounds” (Syngenta Participations AG, priority 2011, dated 2015).

Key:
Assay type in all cases: in vivo
[1] = test system: Orobanche cumana Wallr. seeds (race 'F'); experiment: Germination of preconditioned Orobanche cumana seeds on glass fiber filter paper in petri dishes; conditions: Table 5; 1.0 mg l^-1; seed lot IN153; mean, N = 5 x 100 seeds
[2] = test system: Orobanche cumana Wallr. seeds (race 'F'); experiment: as above; conditions: for Germination (%): mean, N = 5 x 100 seeds; for Germination inducing effect on Orobanche cumana seeds (summary in words): summary of Tables 3 to 6
Procedure: The effect of compounds of Formula (I) on germination of Orobanche cumana Wallr. seeds was evaluated on glass fiber filter paper (GFFP) in petri dishes. Seeds were preconditioned at moisture and suitable temperature to become responsive to the specific chemical germination stimulants.
Test compounds were dissolved in DMSO (10 000 mg 1^−1) and stored at room temperature in a desiccators with desiccants. The stock solutions were dissolved with deionised water to the appropriate final test concentration.
Seeds of O. cumana race ‘F’ were collected from a sunflower field in Manzanilla (Seville, Spain) in 2006 (IN146) and 2008 (IN153), respectively and stored at room temperature. To separate seeds from heavy organic debris, a modified sucrose floatation technique as described by Hartman & Tanimonure (Plant Disease (1991), 75, p. 494) was applied. Seeds were filled into a separation funnel and stirred in water. When seeds floated to the surface, the water fraction containing heavy debris was discarded. Seeds were re-suspended in 2.5M sucrose solution (specific gravity of 1.20) and heavy debris was allowed to settle down for 60 min. After removing debris, seeds were disinfected in 1% sodium hypochlorite solution and 0.025% (v/v) Tween 20 for 2 min. The seeds were decanted onto two layers of cheesecloth, rinsed with sterile deionised water and re-suspended in sterile deionised water. Two ml of the seed suspension containing approximately 150-400 seeds were spread evenly on two layers of sterile glass fiber filter paper disc ([…]) in Petri dishes (Ø9 cm). After wetting the discs with 3 ml sterile deionised water, petri dishes were sealed with parafilm. Seeds were incubated for 10 days at 20° C. in the dark for seed conditioning. The upper disc with conditioned seeds was briefly dried, transferred to a petri dish lined with a dry GFFP disc, and wetted with 6 ml of the appropriate test solution. The compounds of formula (I) were tested at concentrations of 0.001, 0.01, and 0.1 mg 1^−1. The strigolactone analogue GR24 was included as positive control and 0.001% DMSO as negative control. All treatments were tested in five replicates. Seeds were re-incubated at 20° C. in the dark and examined for germination 10 days later. The radicles of germinated seeds were stained for 5 min with blue ink (MIGROS, Switzerland) in 5% acetic acid according to Long et al. Seed Science Research (2008), 18, p. 125). After staining, seeds were photographed using a camera stand mounted with a digital SLR camera (Canon EOS 5D). Germination of 100 seeds per replicate was evaluated on digital images. Seeds were considered germinated when the radicle protruded from the seed coat.

[3] = test system: Brassica oleracea cv Botrytis (common cauliflower) seeds; experiment: Standard paper germination test for Brassica (cauliflower seeds, suboptimal conditions); conditions: 25 μM, 20° C., dark; for stimulation (extra germination compared to the DMSO treatment, expressed as percentage of the DMSO treatment): tropical cauliflower 3C150, seed batch 11B295; for acceleration (hours faster than the DMSO treatment to reach 50% of total germination) / t50 (time needed to reach 50% of total germination): tropical cauliflower 3C150, seed batch 11B552
Procedure: The effect of compounds of Formula (I) on the germination of Brassica oleracea cv Botrytis or common cauliflower was tested on two types of cauliflowers: temperate types and tropical types. These two types were chosen because they display different sensitivities to the light conditions and temperature during germination. Germination of a sensitive temperate type is inhibited by light at 10° C. while for the tropical types germination at 20° is stimulated by the presence of light.
The temperate seed batches tested are part of commercially produced seed batches of various varieties which are known to be sensitive to light at 10° C. These seeds were harvested and cleaned according standard commercial procedures. Ready seed batches were used (Ready indicates the processing level of these seeds: they have been cleaned and sized but received no other treatments). The tropical seed batches tested are part of seed batches produced as basic seed (for maintenance of the parental line) and were processed accordingly.
Germination was assessed using the standard paper germination test for Brassica: Fifty seeds were placed on blue germination paper, which was moistened with the appropriate solutions, in closed oblong germination boxes. Each condition was tested in duplo. Germination boxes were placed in controlled germination cabinets with the appropriate temperature and light conditions. Germination of seeds was counted at regular intervals. Seeds were considered to be germinated when the radical had protruded the testa and endosperm (radical size approximately 1 mm). Germination kinetics were analyzed using the Germinator analysis tool in order to obtain the parameters: Gmax (maximum germination) and t50 (time needed to reach 50% of the Gmax). The Germinator analysis tool is an add-in in for excel developed by the University of Wageningen: Joosen, R. V. L., J. Kodde, et al. (2010). (“Germinator: A Software Package for High-Throughput Scoring and Curve Fitting of Arabidopsis Seed Germination.” The Plant Journal 62(1): 148-159.)
Test compounds were dissolved in DMSO at a concentration of 50 mM and stored at −20° C. The strigolactone analogue GR24 (commercially available as a racemic mixture of 2 diastereoisomers, referred to as “synthetic strigolactone GR-24” and first prepared by Johnson A. W. & all, Journal of the Chemical Society, Perkin Transactions 1, 1981, page 1734-1743) was included as positive control. Germination solutions were prepared by diluting the stock solutions with demineralized water till 25 μM. As control solutions demineralized water and a 0.05% v/v DMSO solution were used.

[4] = Table 5, 0.01 mg l^-1, seed lot IN153
[5] = Table 5, 0.1 mg l^-1, seed lot IN153
[6] = Table 7, tropical cauliflower 3C150, seed batch 11B295 (Chili 2011)
[7] = Table 8, tropical cauliflower 3C150, seed batch 11B552 (South Africa 2010)
[8] = Table 3, 0.001 mg l^-1, seed lot IN146, 10 days at 20° C. in the dark
[9] = Table 3, 0.01 mg l^-1, seed lot IN146
[10] = Table 3, 0.1 mg l^-1, seed lot IN146
[11] = Table 4, 0.001 mg l^-1, seed lot IN153
[12] = Table 4, 0.01 mg l^-1, seed lot IN153
[13] = Table 4, 0.1 mg l^-1, seed lot IN153
[14] = Table 6, 0.001 mg l^-1, seed lot IN153
[15] = Table 6, 0.01 mg l^-1, seed lot IN153
[16] = Table 6, 0.1 mg l^-1, seed lot IN153

Row | SMILES | Germination (%) [1] | Germination (%) [2, 4] | Germination (%) [2, 5] | Germination inducing effect on Orobanche cumana seeds (summary in words) [2] | Gmax (total germination) [3, 6] | stimulation (extra germination compared to the DMSO treatment, expressed as percentage of the DMSO treatment) ([3]; Table 7) | Gmax (total germination) [3, 7] | acceleration (hours faster than the DMSO treatment to reach 50% of total germination) ([3]; Table 8) | t50 (time needed to reach 50% of total germination) ([3]; Table 8) | Germination (%) [2, 8] | Germination (%) [2, 9] | Germination (%) [2, 10] | Germination (%) [2, 11] | Germination (%) [2, 12] | Germination (%) [2, 13] | Germination (%) [2, 14] | Germination (%) [2, 15] | Germination (%) [2, 16] | Germination (%) ([2]; Table 5, 0.001 mg l^-1, seed lot IN153)
1 | CC1=C[C@@H](O/C=C2/C(=O)N[C@@H]3C4=CCCC[C@H]4C[C@H]23)OC1=O [Compound B2, (3E,3aR,4aS,8bS)-3-[[(2S)-4-methyl-5-oxo-2H-furan-2-yl]oxymethylene]-1,3a,4,4a,5,6,7,8b-octahydroindeno[1,2-b]pyrrol-2-one] | 91.8% | 80.4% | 89.2% | germination inducing effect | – | – | – | – | – | – | – | – | – | – | – | – | – | – | –
2 | CC1=CC(O/C=C2/C(=O)N[C@@H]3C4=C(CCCC4(C)C)C[C@H]23)OC1=O (stereo partly drawn) [Compound P1, (3E,3aR,8bS)-8,8-dimethyl-3-[(4-methyl-5-oxo-2H-furan-2-yl)oxymethylene]-3a,4,5,6,7,8b-hexahydro-1H-indeno[1,2-b]pyrrol-2-one] | – | – | – | germination inducing effect | 55.0% | 80.0% | 95.0% | 6.6 h | 74.3 h | 88% | 88% | 88.4% | – | – | – | – | – | – | –
3 | CC1=C[C@H](O/C=C2/C(=O)N[C@@H]3C4=CCCC[C@H]4C[C@H]23)OC1=O [Compound P2, (3E,3aR,4aS,8bS)-3-[[(2R)-4-methyl-5-oxo-2H-furan-2-yl]oxymethylene]-1,3a,4,4a,5,6,7,8b-octahydroindeno[1,2-b]pyrrol-2-one] | – | – | – | germination inducing effect | – | – | – | – | – | – | – | – | 92.6% | 91.0% | 91.0% | – | – | – | –
4 | CC1=CC(O/C=C2/C(=O)N[C@@H]3C4=CCC[C@H]4C[C@H]23)OC1=O (some centres unmarked) [Compound P4, 3E 3-[[4-methyl-5-oxo-2H-furan-2-yl]oxymethylene]-1,3a,4,4a,5,6,7b-hexahydropentaleno[1,2-b]pyrrol-2-one] | – | – | – | germination inducing effect | – | – | – | – | – | – | – | – | – | – | – | 73.4% | 82.6% | 68.4% | –
5 | CC1=C[C@H](O/C=C2/C(=O)N(C(=O)OC(C)(C)C)[C@@H]3C4=CCC[C@H]4C[C@H]23)OC1=O [Compound P5, Tert-butyl (3E,3aR,4aS,7bS)-3-[[4-methyl-5-oxo-2H-furan-2-yl]oxymethylene]-2-oxo-3a,4,4a,5,6,7b-hexahydropentaleno[1,2-b]pyrrole-1-carboxylate] | – | – | – | – | – | – | – | – | – | – | – | – | – | – | – | 90.6% | 80.8% | 89.6% | –
6 | CC1=C[C@H](O/C=C2/C(=O)O[C@@H]3c4ccccc4C[C@H]23)OC1=O [GR24, reference compound] | – | 86.6% | 95.2% | – | 73.0% | 140.0% | 100.0% | 8.7 h | 72.2 h | 20.4% | 61.0% | 86.2% | 67% | 65% | 78.4% | 26% | 51% | 84.2% | 88%
